For the assay, the target named is T1, Human serum albumin (HSA) (Homo sapiens, UniProt P02768).
T1 construct: gene ALB; fatty acid-free albumin from human serum; CPM-labelled at Cys-34 for FRET
Put plainly: FRET (Trp-214 to CPM-Cys-34) titration with one-site fit; Trp fluorescence quenching, CD, DLS. Format: binding. An excerpt:
FRET (Trp-214 to CPM-Cys-34) titration with one-site fit; Trp fluorescence quenching, CD, DLS on Human serum albumin (HSA) | The effect was dose dependent and fit a one binding site isotherm, with a calculated maximum change in distance

In PMC6920801, “Conformation and Aggregation of Human Serum Albumin in the Presence of Green Tea Polyphenol (EGCg) and/or Palmitic Acid” (Biomolecules, 2019) one finds EC50 data, which are given here for one compound.

T1 sequence (P02768 25-609): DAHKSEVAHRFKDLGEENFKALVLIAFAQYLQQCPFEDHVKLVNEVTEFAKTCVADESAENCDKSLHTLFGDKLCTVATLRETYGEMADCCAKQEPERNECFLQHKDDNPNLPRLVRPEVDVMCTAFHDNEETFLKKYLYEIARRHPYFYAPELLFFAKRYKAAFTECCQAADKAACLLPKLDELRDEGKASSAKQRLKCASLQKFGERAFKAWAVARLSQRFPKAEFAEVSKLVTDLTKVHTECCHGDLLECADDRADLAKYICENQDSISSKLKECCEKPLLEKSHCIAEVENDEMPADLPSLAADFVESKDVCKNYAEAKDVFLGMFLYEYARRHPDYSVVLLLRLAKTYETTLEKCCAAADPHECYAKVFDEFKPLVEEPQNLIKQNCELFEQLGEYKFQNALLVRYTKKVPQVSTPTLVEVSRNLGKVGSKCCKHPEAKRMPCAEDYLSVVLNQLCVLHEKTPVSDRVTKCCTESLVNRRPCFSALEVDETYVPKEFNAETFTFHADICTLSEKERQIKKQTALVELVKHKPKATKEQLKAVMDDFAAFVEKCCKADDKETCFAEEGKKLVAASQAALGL

The term EC50 denotes the concentration giving half of the maximal effect. High values mean a less potent agent, low ones a more potent agent. The compound `O=C(O[C@@H]1Cc2c(O)cc(O)cc2O[C@@H]1c1cc(O)c(O)c(O)c1)c1cc(O)c(O)c(O)c1` [EGCg, (-)-epigallocatechin gallate] gave an EC50 of 3.7 µM.
